Assay results as given in ChEMBL document CHEMBL4371007, “Biased Ligands of G Protein-Coupled Receptors (GPCRs): Structure-Functional Selectivity Relationships (SFSRs) and Therapeutic Potential” (J Med Chem, 2018).
Where a SMILES comes first, the peptide text is derived from it. Bridges are numbered along the chain shown (N, C = ends). [ ]: non-standard residue; d: D form. The star is where a group is joined. X1 = C[C@@H](NC(=O)[C@@H]1CCCN1C(=O)[C@H](Cc1cnc[nH]1)NC[C@H](CCCCN)N*)C(=O)O; Sar = CNCC(=O)O

Legend:
[1] = biological target: Metabotropic glutamate receptor 5 (Homo sapiens, UniProt P41594); test: Agonist activity at mGlu5 receptor (unknown origin) expressed in CHO cells assessed as increase in Gq-mediated PI hydrolysis after 45 mins by yttrium scintillation proximity assay; assay type: cell-based
[2] = biological target: T1, Type-1 angiotensin II receptor (Homo sapiens, UniProt P30556); test: Agonist activity at human AT1 receptor assessed as increase in beta-arrestin recruitment by chemiluminescent assay
T1 sequence (P30556 whole entry): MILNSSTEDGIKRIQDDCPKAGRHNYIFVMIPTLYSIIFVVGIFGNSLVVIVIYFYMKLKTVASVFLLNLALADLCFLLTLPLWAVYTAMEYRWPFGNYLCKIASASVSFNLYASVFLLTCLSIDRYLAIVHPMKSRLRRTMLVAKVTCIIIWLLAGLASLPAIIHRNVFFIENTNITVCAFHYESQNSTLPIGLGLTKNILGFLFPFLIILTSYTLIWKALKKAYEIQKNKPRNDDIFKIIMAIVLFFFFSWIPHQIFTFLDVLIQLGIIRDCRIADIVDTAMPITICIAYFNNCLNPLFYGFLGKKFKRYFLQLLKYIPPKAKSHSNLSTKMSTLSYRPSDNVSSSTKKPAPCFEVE

[3] = biological target: T2, Metabotropic glutamate receptor 5 (Rattus norvegicus, UniProt P31424); test: Positive allosteric modulation of rat mGlu5 receptor expressed in HEK293 cells assessed as increase in calcium mobilization; assay type: functional, cell-based
D(2) dopamine receptor [4] = biological target: T3, D(2) dopamine receptor (Homo sapiens, UniProt P14416); test: Agonist activity at dopamine D2 receptor (unknown origin) expressed in HEK293T cells co-expressing luciferase based cAMP biosensor assessed as inhibition of forskolin-mediated cAMP accumulation at 1 uM after 15 mins by microbeta luminescence counting assay relative to control; assay type: functional, cell-based
D(2) dopamine receptor [5] = biological target: T3, D(2) dopamine receptor; test: Agonist activity at human dopamine D2long receptor (unknown origin) expressed in HEK293T cells co-expressing TEV fused-beta-Arrestin2 and GRK2 assessed as increase in beta-arrestin-2 recruitment after overnight incubation by Tango assay; assay type: cell-based
D(2) dopamine receptor [6] = biological target: T3, D(2) dopamine receptor; test: Ratio of EC50 for dopamine D2 receptor (unknown origin) expressed in HEK293T cells co-expressing luciferase based cAMP biosensor assessed as inhibition of forskolin-mediated cAMP accumulation to EC50 for human dopamine D2long receptor (unknown origin) expressed in HEK293T cells co-expressing TEV fused-beta-Arrestin2 and GRK2 assessed as increase in beta-arrestin-2 recruitment; assay type: functional, cell-based
D(2) dopamine receptor [7] = biological target: T3, D(2) dopamine receptor; test: Agonist activity at human dopamine D2long receptor (unknown origin) expressed in HEK293T cells co-expressing TEV fused-beta-Arrestin2 and GRK2 assessed as increase in beta-arrestin-2 recruitment at 1 uM after overnight incubation by Tango assay relative to control; assay type: cell-based
D(2) dopamine receptor [8] = biological target: T3, D(2) dopamine receptor; test: Agonist activity at dopamine D2 receptor (unknown origin) expressed in HEK293T cells co-expressing luciferase based cAMP biosensor assessed as inhibition of forskolin-mediated cAMP accumulation after 15 mins by microbeta luminescence counting assay; assay type: functional, cell-based
Apelin receptor [9] = biological target: T4, Apelin receptor (Homo sapiens, UniProt P35414); test: Agonist activity at human APJ receptor by saphenous vein contraction assay
T4 sequence (P35414 whole entry): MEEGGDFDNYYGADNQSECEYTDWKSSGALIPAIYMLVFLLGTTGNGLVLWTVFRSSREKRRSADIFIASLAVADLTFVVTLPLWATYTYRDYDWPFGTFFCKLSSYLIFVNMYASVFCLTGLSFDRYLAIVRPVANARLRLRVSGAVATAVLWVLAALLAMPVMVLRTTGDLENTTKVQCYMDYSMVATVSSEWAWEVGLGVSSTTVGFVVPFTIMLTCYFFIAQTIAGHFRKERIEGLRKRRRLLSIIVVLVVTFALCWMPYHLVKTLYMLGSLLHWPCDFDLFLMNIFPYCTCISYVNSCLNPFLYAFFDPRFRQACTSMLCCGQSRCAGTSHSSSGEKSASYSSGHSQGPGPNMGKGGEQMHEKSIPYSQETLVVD

Apelin receptor [10] = biological target: T4, Apelin receptor; test: Agonist activity at human APJ receptor assessed as increase in beta-arrestin recruitment
Apelin receptor [11] = biological target: T4, Apelin receptor; test: Induction of human APJ receptor internalization by cell based assay
[12] = biological target: T2, Metabotropic glutamate receptor 5; test: Positive allosteric modulation of rat mGlu5 receptor expressed in HEK293 cells assessed as increase in calcium mobilization after 60 secs in presence of glutamate by Fluo-4 AM dye-based fluorescence assay; assay type: functional, cell-based
Apelin receptor [13] = biological target: T4, Apelin receptor; test: Agonist activity at GFP10 tagged human APJ receptor expressed in HEK293 cells harboring Rluc2-Galphai1/GFP10-Ggamma/Gbeta1 after 5 mins by BRET assay; assay type: cell-based
Apelin receptor [14] = biological target: T4, Apelin receptor; test: Agonist activity at GFP10 tagged human APJ receptor expressed in HEK293 cells harboring Rluc2-beta-arrestin1 assessed as increase in beta-arrestin1 recruitment after 30 mins by BRET-based luciferase reporter gene assay; assay type: cell-based
Apelin receptor [15] = biological target: T4, Apelin receptor; test: Agonist activity at GFP10 tagged human APJ receptor expressed in HEK293 cells harboring Rluc2-Galpha0A/GFP10-Ggamma/Gbeta1 after 5 mins by BRET assay; assay type: cell-based
Apelin receptor [16] = biological target: T4, Apelin receptor; test: Agonist activity at human APJ receptor expressed in HEK293 cells harboring Rluc2-beta-arrestin2 assessed as increase in beta-arrestin2 recruitment after 30 mins by BRET-based luciferase reporter gene assay; assay type: cell-based
[17] = biological target: T5, Kappa-type opioid receptor (Rattus norvegicus, UniProt P34975); test: Agonist activity at GFP-tagged rat kappa opioid receptor expressed in HEK293 cells assessed as increase in beta-arrestin mediated p38 phosphorylation after 5 mins by Western blot analysis; assay type: cell-based
[18] = biological target: T5, Kappa-type opioid receptor; test: Agonist activity at GFP-tagged rat kappa opioid receptor expressed in HEK293 cells assessed as increase in ERK1/2 phosphorylation after 5 mins by Western blot analysis; assay type: cell-based
CHO = test: Cytoprotection against glutamate-induced cell death in CHO cells assessed as increase in cell viability by colorimetric assay; assay type: functional, cell-based; details: Cricetulus griseus

T3 sequence (P14416 whole entry, the tested form may be a part): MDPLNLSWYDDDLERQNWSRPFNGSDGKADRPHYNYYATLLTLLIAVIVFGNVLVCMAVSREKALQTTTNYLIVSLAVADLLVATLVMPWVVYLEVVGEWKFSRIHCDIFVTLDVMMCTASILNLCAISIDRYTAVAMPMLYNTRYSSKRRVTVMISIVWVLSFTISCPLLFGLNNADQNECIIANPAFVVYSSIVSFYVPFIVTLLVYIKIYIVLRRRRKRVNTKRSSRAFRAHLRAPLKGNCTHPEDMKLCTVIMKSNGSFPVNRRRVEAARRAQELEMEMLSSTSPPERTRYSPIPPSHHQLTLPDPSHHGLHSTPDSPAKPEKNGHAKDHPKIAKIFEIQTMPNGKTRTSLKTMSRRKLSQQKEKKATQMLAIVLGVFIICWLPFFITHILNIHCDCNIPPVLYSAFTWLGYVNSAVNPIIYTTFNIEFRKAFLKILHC
T2 sequence (P31424 whole entry): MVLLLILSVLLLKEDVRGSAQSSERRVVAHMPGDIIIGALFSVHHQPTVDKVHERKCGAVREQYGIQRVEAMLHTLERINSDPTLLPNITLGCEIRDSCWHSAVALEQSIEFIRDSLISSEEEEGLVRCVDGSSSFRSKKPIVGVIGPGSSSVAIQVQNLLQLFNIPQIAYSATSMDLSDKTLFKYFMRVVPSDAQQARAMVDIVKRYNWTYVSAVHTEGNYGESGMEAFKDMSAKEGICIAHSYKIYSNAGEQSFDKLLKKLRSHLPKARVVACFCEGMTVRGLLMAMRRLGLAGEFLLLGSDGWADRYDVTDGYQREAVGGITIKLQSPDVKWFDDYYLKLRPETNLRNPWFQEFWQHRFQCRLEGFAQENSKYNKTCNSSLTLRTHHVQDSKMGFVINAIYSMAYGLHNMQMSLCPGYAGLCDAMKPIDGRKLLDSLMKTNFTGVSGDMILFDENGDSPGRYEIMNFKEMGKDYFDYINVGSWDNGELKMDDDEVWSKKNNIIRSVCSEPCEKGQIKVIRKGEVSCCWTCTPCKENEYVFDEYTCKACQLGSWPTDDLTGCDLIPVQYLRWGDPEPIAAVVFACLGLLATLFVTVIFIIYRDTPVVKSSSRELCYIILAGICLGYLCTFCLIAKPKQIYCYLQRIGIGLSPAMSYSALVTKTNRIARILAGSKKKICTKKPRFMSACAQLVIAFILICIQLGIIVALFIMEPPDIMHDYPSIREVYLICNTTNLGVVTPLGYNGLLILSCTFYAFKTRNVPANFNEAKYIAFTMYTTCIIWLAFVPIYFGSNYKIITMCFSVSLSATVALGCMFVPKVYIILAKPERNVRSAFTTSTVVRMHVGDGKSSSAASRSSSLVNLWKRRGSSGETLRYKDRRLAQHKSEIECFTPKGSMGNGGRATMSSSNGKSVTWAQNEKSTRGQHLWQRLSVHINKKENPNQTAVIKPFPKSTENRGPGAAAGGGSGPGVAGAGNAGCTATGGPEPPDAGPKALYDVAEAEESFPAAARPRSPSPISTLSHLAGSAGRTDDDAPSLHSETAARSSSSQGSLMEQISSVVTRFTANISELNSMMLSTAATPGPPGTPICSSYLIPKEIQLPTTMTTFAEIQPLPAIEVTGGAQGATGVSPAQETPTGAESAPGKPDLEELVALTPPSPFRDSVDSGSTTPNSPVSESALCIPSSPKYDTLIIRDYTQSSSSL
T5 sequence (P34975 whole entry): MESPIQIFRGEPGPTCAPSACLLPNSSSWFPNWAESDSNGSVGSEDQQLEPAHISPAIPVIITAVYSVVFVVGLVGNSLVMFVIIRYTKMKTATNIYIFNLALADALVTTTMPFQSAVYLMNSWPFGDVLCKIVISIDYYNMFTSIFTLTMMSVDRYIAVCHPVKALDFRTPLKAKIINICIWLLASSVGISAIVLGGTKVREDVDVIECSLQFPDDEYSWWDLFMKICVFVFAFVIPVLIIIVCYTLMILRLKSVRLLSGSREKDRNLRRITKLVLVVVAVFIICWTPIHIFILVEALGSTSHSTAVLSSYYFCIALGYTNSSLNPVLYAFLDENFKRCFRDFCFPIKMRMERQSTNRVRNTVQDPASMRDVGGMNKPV
Chain of Metabotropic glutamate receptor 5 (Homo sapiens, UniProt P41594) (P41594 whole entry): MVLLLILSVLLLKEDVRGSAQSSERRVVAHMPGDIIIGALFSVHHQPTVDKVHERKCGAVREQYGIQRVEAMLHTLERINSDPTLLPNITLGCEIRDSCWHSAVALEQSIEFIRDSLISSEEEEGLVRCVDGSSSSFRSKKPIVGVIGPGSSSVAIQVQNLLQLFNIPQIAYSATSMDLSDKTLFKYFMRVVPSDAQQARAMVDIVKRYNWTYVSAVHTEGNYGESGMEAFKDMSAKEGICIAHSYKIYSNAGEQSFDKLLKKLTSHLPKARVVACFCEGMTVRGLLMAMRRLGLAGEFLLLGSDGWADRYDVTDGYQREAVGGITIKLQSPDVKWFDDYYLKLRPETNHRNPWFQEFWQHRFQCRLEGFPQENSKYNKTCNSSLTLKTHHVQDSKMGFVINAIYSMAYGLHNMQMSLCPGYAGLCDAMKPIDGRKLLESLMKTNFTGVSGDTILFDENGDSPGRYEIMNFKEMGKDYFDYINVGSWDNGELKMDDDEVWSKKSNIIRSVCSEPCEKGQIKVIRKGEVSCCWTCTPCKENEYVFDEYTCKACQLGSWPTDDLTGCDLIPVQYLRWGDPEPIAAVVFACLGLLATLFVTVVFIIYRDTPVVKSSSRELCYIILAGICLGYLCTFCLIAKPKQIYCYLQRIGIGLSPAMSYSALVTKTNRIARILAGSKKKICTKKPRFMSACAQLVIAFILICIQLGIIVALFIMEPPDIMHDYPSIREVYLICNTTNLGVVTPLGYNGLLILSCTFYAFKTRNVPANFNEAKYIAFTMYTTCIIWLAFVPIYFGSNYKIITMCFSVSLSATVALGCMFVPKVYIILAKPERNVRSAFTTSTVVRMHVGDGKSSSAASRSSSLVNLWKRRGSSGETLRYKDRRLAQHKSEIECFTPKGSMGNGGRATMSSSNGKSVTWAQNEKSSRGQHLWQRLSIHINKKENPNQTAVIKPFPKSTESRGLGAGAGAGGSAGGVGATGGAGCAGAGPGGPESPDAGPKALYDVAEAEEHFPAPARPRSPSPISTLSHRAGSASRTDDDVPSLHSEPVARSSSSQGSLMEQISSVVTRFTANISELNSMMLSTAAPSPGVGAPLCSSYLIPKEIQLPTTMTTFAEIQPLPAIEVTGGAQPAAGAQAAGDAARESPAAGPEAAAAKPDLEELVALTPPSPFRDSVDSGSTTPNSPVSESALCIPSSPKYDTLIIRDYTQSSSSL

Question: `N[C@@H](Cn1oc(=O)[nH]c1=O)C(=O)O` [QUISQUALATE] was tested. Which EC50 [1] did it give?
Answer: 630 nM

Question: `CC[C@H](C)[C@H](NC(=O)[C@@H](NC(=O)[C@H](CCCNC(=N)N)NC(=O)CNC)C(C)C)C(=O)N[C@@H](CCCCN)CN[C@@H](Cc1cnc[nH]1)C(=O)N1CCC[C@H]1C(=O)N[C@H](C)C(=O)O` (H-[Sar]RVI-X1) was tested. Which EC50 [2] did it give?
Answer: 17 nM

Question: With `O=C(c1ccc(F)cc1)N1CCc2nc(COc3ccccc3)oc2C1` as the molecule, how does the EC50 [3] read?
Answer: 235 nM

Question: `Cc1cc2c(N3CCN(CCCCOc4ccc5c(c4)NC(=O)CC5)CC3)cccc2n1C` was tested. Which Emax (D(2) dopamine receptor [4]) did it give?
Answer: 60%

Question: And the EC50 (D(2) dopamine receptor [5])?
Answer: 2.9 nM

Question: What about the Ratio EC50 (D(2) dopamine receptor [6]) of the same molecule?
Answer: 20

Question: What about the Emax (D(2) dopamine receptor [7]) of the same molecule?
Answer: 78%

Question: And the EC50 (D(2) dopamine receptor [8])?
Answer: 23 nM

Question: Which EC50 (Apelin receptor [9]) does the source give for `CSCC[C@H](NC(=O)[C@@H]1CCCN1C(=O)CNC(=O)[C@H](CCCCN)NC(=O)[C@H](Cc1cnc[nH]1)NC(=O)[C@@H]1CSSC[C@H](N)C(=O)N[C@@H](CCCNC(=N)N)C(=O)N2CCC[C@H]2C(=O)N[C@@H](CCCNC(=N)N)C(=O)N[C@@H](CC(C)C)C(=O)N1)C(=O)N1CCC[C@H]1C(=O)N[C@@H](Cc1ccccc1)C(=O)O` (H-CRPRLCHKGPMPF-OH; disulfide 1-6) here?
Answer: 0.288 nM

Question: What about the EC50 (Apelin receptor [10]) of the same molecule?
Answer: 2140 nM

Question: And the EC50 (Apelin receptor [11])?
Answer: 692 nM

Question: With `O=C(Nc1ccc(Cl)cc1CN1C(=O)c2cccc(F)c2C1=O)c1ccccn1` as the molecule, how does the EC50 [12] read?
Answer: 214 nM

Question: With `CC(C)C[C@H](NC(=O)[C@H](CCCCN)NC(=O)[C@@H]1CCCN1C(=O)[C@@H](N)CCCCN)C(=O)N[C@@H](CO)C(=O)N[C@@H]1CC=CCC[C@@H](C(=O)N[C@@H](Cc2ccc(OCc3ccccc3)cc2)C(=O)O)NC(=O)[C@@H]2CCCN2C(=O)CNC(=O)[C@H](CCCCN)NC1=O` as the molecule, how does the EC50 (Apelin receptor [13]) read?
Answer: 56 nM

Question: And the EC50 (Apelin receptor [14])?
Answer: > 10000 nM

Question: And the EC50 (Apelin receptor [15])?
Answer: 50 nM

Question: And the EC50 (Apelin receptor [16])?
Answer: > 10000 nM

Question: Which results are given for `CN(C(=O)/C=C/c1ccoc1)[C@@H]1CC[C@@]2(O)[C@H]3Cc4ccc(O)c5c4[C@@]2(CCN3CC2CC2)[C@H]1O5` [NALFURAFINE]?
Answer: EC50 [17]: 5.2 nM; EC50 [18]: 0.5 nM

Question: `N[C@@H](CCC(=O)O)C(=O)O` [GLUTAMIC ACID] was tested. Which EC50 (CHO) did it give?
Answer: 153000 nM
